Key:
[1] = (§1) The drug is tested on Z-019 corresponding to rat gut metagenome with ENA study accession number: PRJEB37062 and ENA sample accession number: ERS12561818 for biotransformation under anaerobic condition. The drug concentrations were measured over 9 timepoints collected between 0 and 24 hours of incubation by liquid-chromatography-coupled mass spectrometry (LC–MS); conditions: 2 µM
[2] = as §1, with “on Z-011” for “on Z-019”, “to mouse” for “to rat”, “number: ERS12561811” for “number: ERS12561818”; conditions: 2 µM
[3] = as §1, with “Z-007” for “Z-019”, “ERS12561807” for “ERS12561818”; conditions: 2 µM
[4] = as §1, with “on Z-006” for “on Z-019”, “to mouse” for “to rat”, “number: ERS12561806” for “number: ERS12561818”; conditions: 2 µM
[5] = as §1, with “Z-005” for “Z-019”, “to” for “to rat gut”, “ERS12561805” for “ERS12561818”; conditions: 2 µM
[6] = as §1, with “on Z-003” for “on Z-019”, “to pig” for “to rat”, “number: ERS12561803” for “number: ERS12561818”; conditions: 2 µM
[7] = as §1, with “on WLS-086” for “on Z-019”, “to human” for “to rat”, “number: ERS12561752” for “number: ERS12561818”; conditions: 2 µM
[8] = as §1, with “on WLS-077” for “on Z-019”, “to human” for “to rat”, “number: ERS12561750” for “number: ERS12561818”; conditions: 2 µM
[9] = as §1, with “on WLS-010” for “on Z-019”, “to human” for “to rat”, “number: ERS12561743” for “number: ERS12561818”; conditions: 2 µM
[10] = human gut metagenome, 24 h, 2 µM
[11] = human gut metagenome, 24 h, 2 µM; remark: listed apart in the source
[12] = human gut metagenome, 24 h, 2 µM; remark: listed apart in the source
[13] = human gut metagenome, 24 h, 2 µM; remark: listed apart in the source
[14] = human gut metagenome, 24 h, 2 µM; remark: listed apart in the source
[15] = human gut metagenome, 24 h, 2 µM; remark: listed apart in the source
[16] = human gut metagenome, 24 h, 2 µM; remark: listed apart in the source
[17] = human gut metagenome, 24 h, 2 µM; remark: listed apart in the source
[18] = human gut metagenome, 24 h, 2 µM; remark: listed apart in the source
[19] = human gut metagenome, 24 h, 2 µM; remark: listed apart in the source
[20] = human gut metagenome, 24 h, 2 µM; remark: listed apart in the source
Also: call rule not given here.

## OC(CCN1CCCCC1)(c1ccccc1)C1CCCCC1 (stereo not given) [TRIHEXYPHENIDYL]
[1]
  Bacterial Biotransformation: Compound NOT metabolized
[2]
  Bacterial Biotransformation: Compound NOT metabolized
[3]
  Bacterial Biotransformation: Compound NOT metabolized
[4]
  Bacterial Biotransformation: Compound NOT metabolized
[5]
  Bacterial Biotransformation: Compound metabolized
[6]
  Bacterial Biotransformation: Compound metabolized
[7]
  Bacterial Biotransformation: Compound metabolized
[8]
  Bacterial Biotransformation: Compound metabolized
[9]
  Bacterial Biotransformation: Compound NOT metabolized
[10]
  Bacterial Biotransformation: Compound metabolized
[11]
  Bacterial Biotransformation: Compound metabolized
[12]
  Bacterial Biotransformation: Compound metabolized
[13]
  Bacterial Biotransformation: Compound metabolized
[14]
  Bacterial Biotransformation: Compound NOT metabolized
[15]
  Bacterial Biotransformation: Compound metabolized
[16]
  Bacterial Biotransformation: Compound metabolized
[17]
  Bacterial Biotransformation: Compound metabolized
[18]
  Bacterial Biotransformation: Compound metabolized
[19]
  Bacterial Biotransformation: Compound NOT metabolized
[20]
  Bacterial Biotransformation: Compound NOT metabolized
